US20200384018A1, “OZONE NANOBUBBLE ANTICANCER AGENT” (OPT CREATION INC., priority 2017, published 2020)
Where a name gives a salt, the structure may show the parent alone.

system: MIAPaCa-2 cells; assay: Combination of NAnO3 and existing anticancer agents, sequential administration (neutral red); format: cell-based, human; conditions: exposed only to the anticancer agent (doxorubicin 0.1, gemcitabine 0.04, cisplatin 4 μg/mL); DMEM medium = 100%
Procedure: A cell suspension was prepared such that MIAPaCa-2 viable cell count became 5×10^4 cells/mL. The cell suspension (1 mL) was seeded in each of wells of a 12 well plate, allowed to stand in a CO2 incubator set at 37° C. and 5% CO2 and cultured for 18 hours or more to allow the cells to adhere to the bottom of the plate. After the completion of culture, the medium was removed from the plate and the following test-substance solutions were added.
Test-substance solutions 1 to 6 were prepared in the same manner as in Section 2.1 and used. Test-substance solutions 7 to 9 were prepared by adding each anticancer agent/DMEM medium (0.9 mL) and, in several minutes later, adding 0.1 mL of NAnO3. The same operation was also repeated after 48 hours and 72 hours.
After the completion of culture, the medium was removed and washing with PBS (−) was made. To each of the wells of the plate, a 0.005% neutral red (NR) (Kanto Chemical Co., Inc., Lot No. 806W2294) D-MEM solution (1 mL) was added and the plate was allowed to stand in a CO2 incubator for 3 hours. After 3 hours, the NR solution was removed and washing was made with PBS (−). To each plate, 1 mL of a fixation/extraction liquid (ethanol 50% (v/v), glacial acetic acid 1% (v/v) aqueous solution) was added and shaking was made for 10 minutes. Thereafter, the value of the absorbance was measured by using a microplate reader (EL×800, BIO-TEC INSTRUMENTS, INC., wavelength: 540 nm).
Provided that the absorbance of DMEM medium (test-substance solution 1) was regarded as 100%, the cell survival rate (%) of each test group was obtained (FIG. 4).

N.N.[Cl][Pt][Cl] [cisplatin] was tested. Which cell survival rate did it give?
The cell survival rate was 47.5%.

Which cell survival rate does the source give for COc1cccc2c1C(=O)c1c(O)c3c(c(O)c1C2=O)C[C@@](O)(C(=O)CO)C[C@@H]3O[C@H]1C[C@H](N)[C@H](O)[C@H](C)O1 [doxorubicin, doxorubicin hydrochloride] here?
The cell survival rate was 51.1%.

Nc1ccn([C@@H]2O[C@H](CO)[C@@H](O)C2(F)F)c(=O)n1 [gemcitabine, gemcitabine hydrochloride] was tested. Which cell survival rate did it give?
Its cell survival rate is 44.8%.
